Results from US20190134128A1, “METHOD FOR PRODUCING CELASTROL AND PENTACYCLIC TRITERPENE DERIVATIVES” (PIERRE FABRE DERMO-COSMETIQUE, priority 2016, published 2019).
Converted amounts (≈) assume the structure as drawn.

Assays:
S. aureus CIP 4.83 = assay: Antimicrobial activity (MIC/MBC) against Staphylococcus aureus; assay type: cell-based
[1] = test system: Propionibacterium acnes (CIP 53117T); assay: Antimicrobial activity (MIC/MBC, micro-method in liquid medium) against Propionibacterium acnes; assay type: cell-based; settings: 24 h
Description: Activity is evaluated on Propionibacterium acnes (CIP 53117T), with an inoculation suspension at 10^8 CFU/mL. The maintenance medium is Columbia agar+5% sheep blood, with incubation for 24 hours at 36±1° C. under anaerobic conditions. The test medium is composed of Mueller Hinton broth+10% foetal calf serum (FCS) and Columbia agar+5% sheep blood, with incubation for 24 h at 36±1° C. under anaerobic conditions. The determination of minimum inhibitory concentrations (MICs) is performed by micro-method in liquid medium. 100 μL of liquid culture medium is deposited in each well of a sterile 96-well microplate. 100 μL of the product to be tested is deposited in the first well of a row. One-half dilutions are then made from wells 1 to 10. Propionibacterium acnes test suspensions are prepared extemporaneously in tryptone salt. 100 μL is deposited in each well of a second microplate, except column 11. All of the first microplate is inoculated, using a Denley multipoint inoculator, from the second microplate. After incubation, MICs are defined as the highest dilution with no visible growth. Columns 11 and 12 serve as negative and positive growth control, respectively. Two references were tested in parallel. The determination of minimum bactericidal concentrations (MBCs) is performed by subculturing MIC microplates on agar medium using the Denley multipoint inoculator. After incubation, MBC is defined as the highest dilution with no visible growth. All tests are performed in duplicate.

NFκB = assay: Inhibitory activity against NFκB in HaCaT keratinocytes stimulated with TNF-alpha; assay type: cell-based, human; settings: 2 μM, TNF-alpha 0.3 ng/mL
Source text: The transcription factor NFκB controls the expression of a large number of genes involved in regulation of the inflammatory response. […] Certain pro-inflammatory stimuli such as TNF-alpha and IL-1-beta lead to the activation of NFκB, i.e. its nuclear translocation. Once in the nucleus, NFκB will induce the transcription of pro-inflammatory genes encoding cytokines, chemokines, adhesion molecules, growth factors and inducible enzymes.
The anti-inflammatory activities of the extracts obtained from the suspensions contained in Erlenmeyer flasks E1, E2, E3 and E6 of example 8 were evaluated in vitro on human HaCaT keratinocytes according to the method described by Albanesi et al. The extracts, weighed in dry weight, were taken up in a buffer and introduced into a HaCaT cell culture solution in equivalent final concentrations (ng/mL) for each extract and incubated for 1 hour. NFκB expression is then induced by stimulation with TNF-alpha (0.3 ng/mL).

[2] = Staphylococcus aureus, CIP4, 24 h
[3] = S. aureus CIP 4.83, 36° C., 24 h
[4] = Propionibacterium acnes, anaerobic

Row | Compound | MBC (S. aureus CIP 4.83; [2]) [µg/mL] | MIC (S. aureus CIP 4.83; [2]) [µg/mL] | MBC ([1]; Cutibacterium acnes) [µg/mL] | MIC ([1]; Cutibacterium acnes) [µg/mL] | MBC (S. aureus CIP 4.83; [3]) [µg/mL] | MIC (S. aureus CIP 4.83; [3]) [µg/mL] | MBC [1, 4] [µg/mL] | MIC [1, 4] [µg/mL] | % inhibition of NFκB expression with respect to induction of TNF-alpha (NFκB) | % inhibition of NFκB expression with respect to induction of TNF-alpha (NFκB; listed as Dex) [%]
1 | CC1=C(O)C(=O)C=C2C1=CC=C1[C@@]2(C)CC[C@@]2(C)[C@@H]3C[C@](C)(C(=O)O)CC[C@]3(C)CC[C@]12C [Celastrol, celastrol] | 0.59 (≈ 1.31 µM) | 0.29 (≈ 0.644 µM) | 1.17 (≈ 2.6 µM) | 0.59 (≈ 1.31 µM) |  |  |  |  |  | 
2 | C[S+](C)[O-] [DMSO] |  |  |  |  | >5 | >5 | 5 (≈ 64 µM) | 5 (≈ 64 µM) |  | 
3 | C[C@@H]1C[C@H]2[C@@H]3CCC4=CC(=O)C=C[C@]4(C)[C@@]3(F)[C@@H](O)C[C@]2(C)[C@@]1(O)C(=O)CO [Dexamethasone] |  |  |  |  |  |  |  |  | more than 40% | 42.5
4 | CC1=C(O)C(=O)C=C2C1=CC=C1[C@@]2(C)CC[C@@]2(C)C3C[C@@H](C)C(=O)C[C@]3(C)CC[C@]12C (stereo partly drawn) [Tingenin A, tingenin A] | 2.34 (≈ 5.56 µM) | 1.17 to 2.34 (≈ 2.78 to 5.56 µM) | 2.34 (≈ 5.56 µM) | 2.34 (≈ 5.56 µM) |  |  |  |  |  | 
5 | CC1=C(O)C(=O)C=C2C1=CC=C1[C@@]2(C)CC[C@@]2(C)[C@@H]3C[C@@H](C)C(=O)[C@@H](O)[C@]3(C)CC[C@]12C [Tingenin B, tingenin B] | 1.17 (≈ 2.68 µM) | 0.59 (≈ 1.35 µM) | 1.17 (≈ 2.68 µM) | 1.17 (≈ 2.68 µM) |  |  |  |  |  | 
